Test system: healthy adult ventricular cardiac muscle cells
Test: Microinjection of activated caspase-3 into isolated ventricular cardiac muscle cells
Format: cell-based, rabbit
Settings: pre-incubation of the muscle cells with inhibitor (100 μmol/l)
Description: The microinjection experiments were carried out on freshly isolated cardiac muscle cells of sham-operated rabbits by means of a “Femto-Jet” microinjection device (Eppendorf, Hamburg, Germany). FITC-conjugated dextran (6 mg/ml), alone or in combination with human recombinant active caspase-3 (4 ng/μl and 20 ng/μl) in 5 mmol/l potassium phosphate buffer (pH value 7.4; 100 mmol/l KCl) was injected into the cytoplasm of the cells in culture medium (Pi=1000 hPa, ti=0.1 sec., Pc=30 hPa) which had been supplemented with 200 μmol/l BDM (butanedione-monoxime, Sigma, Taufkirchen, Germany), 10 μmol/l verapamil and, optionally, 100 μmol/l […]. After incubation for two hours, contraction measurements or phalloidin staining were carried out. Injected cells were selected by means of FITC fluorescence.
In order to be able to study whether the activation of caspase-3 is sufficient for the induction of the worsening of sarcomere organisation, the activated enzyme was injected into the cytoplasm of healthy adult ventricular cardiac muscle cells. Positive cells (approximately 10 to 20%) were identified by means of FITC fluorescence. The morphological features of the cardiac muscle cells after microinjection of activated caspase-3 (4 ng/μl and 20 ng/μl) in comparison with control-injected cells are shown in FIGS. 9(a+b). […]

Substance: DEVD-fmk
- caspase-3-mediated lowering of contraction: blocked
